Experimental data from ChEMBL document CHEMBL1201862, “PubChem BioAssay data set” (2004).
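Following 48 hours of exposure in 96-well plates, responses at five concentrations were used to interpolate endpoints linearly. GI50: concentration for 50% inhibition of growth.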 Active and inactive are the calls of the source. Rule as the data show it: active = GI50 up to about 1.1 µM and inactive = higher.

What was measured:
Assay in all cases: inhibition of tumour cell growth, NCI panel, 48 h
OVCAR-4 = tested on: OVCAR-4
NCI-H226 = tested on: NCI-H226
EKVX = tested on: EKVX
SK-MEL-5 = tested on: SK-MEL-5
TK-10 = tested on: TK-10
OVCAR-3 = tested on: OVCAR-3
MOLT-4 = tested on: MOLT-4
NCI-H522 = tested on: NCI-H522
HCT-116 = tested on: HCT-116
SN12C = tested on: SN12C
SF-295 = tested on: SF-295
U-251 = tested on: U-251
HOP-62 = tested on: HOP-62
ACHN = tested on: ACHN
SR = tested on: SR
A549 = tested on: A549
MDA-MB-435 = tested on: MDA-MB-435
MCF7 = tested on: MCF7
PC-3 = tested on: PC-3

Measured: GI50

C/C=C1\CCC2c3[nH]c4ccccc4c3CCN2C1 (stereo unspecified)
inactive: OVCAR-4 32.1 µM | NCI-H226 31 µM | EKVX > 100 µM | SK-MEL-5 51.2 µM | TK-10 > 100 µM | OVCAR-3 35.8 µM | MOLT-4 76.4 µM | NCI-H522 83.8 µM | HCT-116 56 µM | SN12C > 100 µM | SF-295 > 100 µM | U-251 > 100 µM | HOP-62 > 100 µM | ACHN > 100 µM | SR 55.5 µM | A549 > 100 µM

CCCCCCSCC/C(C)=N\OC
inactive: OVCAR-4 > 100 µM | NCI-H226 > 100 µM | EKVX > 100 µM | SK-MEL-5 > 100 µM | TK-10 > 100 µM | OVCAR-3 > 100 µM | MOLT-4 > 100 µM | NCI-H522 > 100 µM | HCT-116 > 100 µM | SN12C > 100 µM | SF-295 > 100 µM | MDA-MB-435 > 100 µM | U-251 > 100 µM | HOP-62 > 100 µM | ACHN > 100 µM | MCF7 > 100 µM | A549 > 100 µM | PC-3 > 100 µM

N#C/C(=C\c1ccc[nH]1)C(=O)c1ccccc1
inactive: OVCAR-4 > 100 µM | NCI-H226 > 100 µM | EKVX > 100 µM | SK-MEL-5 > 100 µM | TK-10 > 100 µM | OVCAR-3 > 100 µM | MOLT-4 > 100 µM | NCI-H522 > 100 µM | HCT-116 > 100 µM | SN12C > 100 µM | SF-295 > 100 µM | U-251 > 100 µM | HOP-62 > 100 µM | ACHN > 100 µM | SR > 100 µM | A549 > 100 µM

O=C(O)C1CC2CC(=O)C1C2 (stereo unspecified)
inactive: OVCAR-4 > 100 µM | NCI-H226 > 100 µM | EKVX > 100 µM | SK-MEL-5 > 100 µM | TK-10 > 100 µM | OVCAR-3 > 100 µM | MOLT-4 > 100 µM | NCI-H522 > 100 µM | HCT-116 > 100 µM | SN12C > 100 µM | SF-295 > 100 µM | U-251 > 100 µM | HOP-62 > 100 µM | ACHN > 100 µM | SR > 100 µM | A549 > 100 µM

COc1cc2cc3c4c(cc(OC)c(OC)c4c2cc1OC)CCN3C(=O)CCCC(=O)O
inactive: OVCAR-4 34.8 µM | NCI-H226 > 100 µM | EKVX > 100 µM | SK-MEL-5 > 100 µM | TK-10 > 100 µM | OVCAR-3 > 100 µM | MOLT-4 > 100 µM | NCI-H522 > 100 µM | HCT-116 > 100 µM | SN12C > 100 µM | SF-295 > 100 µM | U-251 > 100 µM | HOP-62 > 100 µM | ACHN > 100 µM | SR > 100 µM | A549 > 100 µM

CCOc1ccc(NCC2CC/C(=C\c3ccc(Cl)cc3)C2=O)cc1 (stereo unspecified)
inactive: OVCAR-4 39.7 µM | NCI-H226 > 100 µM | EKVX 38.6 µM | SK-MEL-5 23 µM | TK-10 34.6 µM | OVCAR-3 > 36.9 µM | MOLT-4 16.8 µM | NCI-H522 6.25 µM | HCT-116 31.1 µM | SN12C > 42.8 µM | SF-295 > 100 µM | U-251 25.8 µM | HOP-62 > 100 µM | ACHN > 40.6 µM | SR 12.1 µM | A549 > 100 µM

CN/C(=N\C#N)N(Cc1ccccc1)Cc1ccccc1
inactive: OVCAR-4 > 100 µM | NCI-H226 > 100 µM | EKVX > 100 µM | SK-MEL-5 > 100 µM | TK-10 > 100 µM | OVCAR-3 > 100 µM | MOLT-4 > 100 µM | NCI-H522 > 100 µM | HCT-116 > 100 µM | SN12C > 100 µM | SF-295 > 100 µM | U-251 > 100 µM | HOP-62 > 100 µM | ACHN > 100 µM | SR > 100 µM | A549 > 100 µM

C1=CC2SSSC2C1 (stereo unspecified)
inactive: OVCAR-4 > 100 µM | NCI-H226 > 100 µM | EKVX > 100 µM | SK-MEL-5 > 100 µM | TK-10 > 100 µM | OVCAR-3 > 100 µM | MOLT-4 > 100 µM | NCI-H522 > 100 µM | HCT-116 > 100 µM | SN12C > 100 µM | SF-295 > 100 µM | U-251 > 100 µM | HOP-62 > 100 µM | ACHN > 100 µM | SR > 100 µM | A549 > 100 µM

COc1ccc(CCN(C)C2CCC(C#N)(c3ccc(OC)c(OC)c3)CC2)cc1OC (stereo unspecified)
inactive: OVCAR-4 > 100 µM | NCI-H226 > 100 µM | EKVX > 100 µM | SK-MEL-5 56.9 µM | TK-10 > 100 µM | OVCAR-3 > 100 µM | MOLT-4 > 100 µM | NCI-H522 > 10 µM | HCT-116 85.3 µM | SN12C > 100 µM | SF-295 > 100 µM | U-251 > 100 µM | HOP-62 > 100 µM | ACHN > 100 µM | SR > 100 µM | A549 > 100 µM
